The results in this text go back to patent US20080015147A1, “Method for inhibiting neuronal cell death” (priority 2006, published 2008).

Entries after “also recorded” stand apart in the source; their conditions may differ.

One assay deals with caspase 8. The assay is described as follows: Caspase 8 colorimetric assay. It is filed as cell-based, mouse. On the procedure: (§1) Caspase 8 and 3 colorimetric assays were performed on the N38 cells at all pH conditions. The assay was based on the detection of the chromophore pNA after cleavage from the labeled substrate IETD-pNA and DEVD-pNA for caspase 8 and 3, respectively. Comparison of the pNA absorbance from the suspected apoptotic sample was compared to the uninduced neutral pH sample. Caspase 8 and 3 were analysed using the Caspase-3 Colorimetric Activity Assay (Chemicon, Temecula USA) and Caspase-8 Colorimetric Activity Assay (Chemicon, Temecula USA). The cells from each pH treatment described previously at 24 and 48 hrs were removed using a cell scraper and centrifuged at 1500 rpm for 10 minutes. The cells were resuspended in 350 μl of chilled cell lysis buffer containing 500 μl PBS, 5 μl 1% Triton ×100 (Sigma, St. Louis), 25 μl proteinase inhibitor cocktail set III (VWR, Mississauga), 0.5 μM dithiothreitol (DTT) (Sigma, St. Louis) and 2.5 μl phenylmethylsulphonylfluoride (PMSF) diluted in 1 mL of methanol (EM Science, Gibbstown), then incubated on ice for 10 min and centrifuged for 5 minutes at 10,000 rpm. The supernatant, consisting of cytosolic extracts, was transferred to a new tube and a bicinchoninic acid (BCA) protein assay (Pierce, Rockford) was conducted to determine total protein concentration. The absorbance of each sample was measured on a SPECTRAmax Microplate spectrophotometer at 405 nm after an incubation period of 2 hours at 37° C. Changes in caspase 3 activity were determined by comparing the absorbance reading from the induced sample with the level of the uninduced control. Background readings from the buffer were subtracted from the reading of both the induced (pH 6.8, 8.0, 8.4) and uninduced (pH 7.4) samples before calculating changes in caspase 3 activity. The same was done for the detection of caspase 8. As a control, N38 cells were cultured with pH 7.4 DMEM and incubated for 4 days, apoptosis was then induced using 10 μM/ml etoposide and lysed according to the above protocol and used a control for all subsequent caspase 3 detection. All assays were performed with 4 replications.

A further assay has as its system caspase 3. The assay is described as follows: Caspase 3 colorimetric assay. It is filed as cell-based, mouse. On the procedure: as §1
The subject of a further assay is N38 cells. The assay is described as follows: MTT assay (mitochondrial activity). It is filed as cell-based, mouse. To be noted: for MTT activity (optical density): 48 hrs, 2×10^−7 M. As for the experimental part:
The effect of TCAP-1 on cell proliferation at each pH was examined by direct counts using a hemocytometer and indirectly by assessing mitochondrial activity using a colorimetric MTT (3-[4,5-dimethylthiazol-2-yl]-2,5-diphenyl tetrazolium bromide) assay on cultured N38 cells. For hemocytometer counts, the cultures were incubated for 24 and 48 hrs. The cells were suspended using 1 ml of 0.25% Trypsin with EDTA (Gibco-Invitrogen, Burlington, Canada), centrifuged at 1600 RPM for 4 min, and resuspended with PBS. The cells in 50 μl aliquots were vortexed and counted on a hemocytometer.
A (3-4,5-dimethylthiazol-2-yl]-2,5-diphenyl tetrazolium bromide) MTT assay was conducted using the In Vitro Toxicology Assay Kit: MTT based (Sigma, St. Louis). The cells were cultured for the MTT assay at 24 and 48 hours and were incubated at 37° C. in 5% CO2 for 3 hrs in the presence of MTT 200 μl/2 ml medium. The samples were mixed by shaking the plate horizontally for 30 min. The background absorbance of the multi-well plates was determined at 690 nm and subtracted from the 570 nm measurement.

For the next assay, the system named is Phospho-Akt. The assay is described as follows: Phospho-Akt western blot. The format is cell-based, mouse. To be noted: all pH treatments; 48 hrs. On the procedure:
Western blots using Akt and phosphorylated Akt (P-Akt) primary antibodies were conducted on all conditions of the cultured N38 cells to determine whether TCAP was preventing cell death by phosphorylation. The same western blot procedure outlined above was repeated with an Akt primary antibody (Cell Signalling, Beverly) at a titer of 1:500, followed by membrane incubation with anti-rabbit HRP-conjugated secondary antibody (Amersham, Baie d'Urfé) at 1:3000, followed by exposure on Kodak X-OMAT Blue film (Perkin Elmer Canada Inc, Vaudreuil-Dorion) for 30 min. Phospho Akt expression at 48 hrs was determined using the method described above with a PAkt primary antibody (Cell Signalling 9271) at 1:1000 followed by membrane incubation with anti-rabbit HRP-conjugated secondary antibody (Amersham, Baie d'Urfé) at 1:2000 followed by exposure on Kodak X-OMAT Blue film (Perkin Elmer Canada Inc, Vaudreuil-Dorion) overnight. Cultured N38 cells were serum-starved for 48 hours in order to induce phosphorylation and following the same protocol above were loaded as a control. Total optical density of the blots, were quantified using LabWorks 4.0 Image Acquisition and Analysis Software from Ultra-Violet Products Ltd. (UVP).

Another assay relates to catalase. The assay is described as follows: Catalase gene expression by real-time PCR. The format is cell-based, mouse. To be noted: p<0.001.
In assay [1] the test system is N38 cells immortalized mouse hypothalamic cell line. The assay is described as follows: Cell morphology analysis (small round necrotic cells). The format is cell-based. To be noted: for number of small round (necrotic) cells, vehicle vs TCAP-treated: 48 hrs; for number of rounded cells relative to vehicle: 72 hrs. On the procedure:
The effect of TCAP-1 on cell morphology was conducted using the N38 cells immortalized mouse hypothalamic cell line(Belsham et al, 2004). Cells were grown in six-well culture plate with 2 ml of Dulbeco's Modified Eagle Medium (DMEM) with high glucose, […], 25 mM HEPES buffer, pyridoxine hydrochloride in the absence of sodium pyruvate, 5 ml penicillin with 10% fetal bovine serum (FBS) at pH 7.4 (all from Gibco-Invitrogen, Burlington, Canada).
At 24 and 48 hrs, the medium was replaced with medium buffered at pH 6.8, 7.4, 8.0 or 8.4. Half of the cell groups received (2×10^−7 M) TCAP-1, whereas the other half received phosphate buffered saline (PBS) pH 7.4 containing 8 g NaCl, 0.2 g KCl, 1.4 g Na2HPO4, 0.2 g KH2PO4 in. 800 mL ddH2O. For all groups, 4 replicates were run. Digital pictures were taken at 24, 48 and 72 hrs using an Olympus IX&1 inverted microscope at a magnification of 200× and analyzed using LabWorks 4.0 Image Acquisition and Analysis software (UltraViolet Products Ltd).

Another assay relates to superoxide radical. The assay is described as follows: Superoxide radical measured by conversion of a soluble tetrazolium salt. It is filed as cell-based, mouse. Particulars: 48 hours. As for the experimental part: The presence of the superoxide radical was measured indirectly by the conversion of a soluble tetrazolium salt in cells after 48 hours (FIG. 8A).

Take “teneurin C-terminus associated peptide [TCAP-1]”: the “relative level of caspase 8 activity, of the etoposide-induced increase” value with caspase 8 (pH 7.4) is reported as “about 70%”. In addition, the “caspase 8 activity vs vehicle” value in the assay with caspase 8 (pH 7.4, P<0.001) was “increased caspase 8 activity”; in the assay with caspase 8 (pH 8.0) it was “no significant differences in caspase 8 and 3 activity”; in the assay with caspase 8 (pH 8.4), “no significant differences in caspase 8 and 3 activity”. Besides, the “relative level of caspase 3 activity, of the etoposide-induced increase” value in the assay with caspase 3 (pH 6.8) is on record as approximately 40%. The “caspase 3 activity vs vehicle” value was “increased caspase 3 activity” in the assay on caspase 3 (pH 6.8, P<0.05); “no significant differences in caspase 8 and 3 activity” in the assay with caspase 3 (pH 8.0); “no significant differences in caspase 8 and 3 activity” in the assay with caspase 3 (pH 8.4). For the same substance, the MTT activity result in the assay with N38 cells (pH 6.8) and in the assay with N38 cells (pH 7.4) was “did not induce a significant effect on MTT activity” in each case. The “MTT activity (optical density)” value in the assay with N38 cells (pH 8.0) and with N38 cells (pH 8.4) was “significant increase in optical density; also recorded: increased the number of viable cells” throughout. Besides, the “Akt phosphorylation (serine 473) on western blot” value with Phospho-Akt is recorded as “no bands in any samples; also recorded: no indication of AKT phosphorylation”. Further, the “catalase mRNA induction” value in the assay with catalase (pH 8.0) is 3 fold; with catalase (pH 8.4) it was 5 fold. The “number of small round (necrotic) cells, vehicle vs TCAP-treated” value is recorded as “significant increase in the number of small round cell types (necrotic cells) in the vehicle-treated cultures” in assay [1] (pH 6.8, p<0.05); “significant increase in the number of small round cell types (necrotic cells) in the vehicle-treated cultures” in assay [1] (pH 8.0, p<0.001); “significant increase in the number of small round cell types (necrotic cells) in the vehicle-treated cultures” in assay [1] (pH 8.4, p<0.001). For the same substance, the observable morphological changes entry in assay [1] (pH 7.4, TCAP-1 2×10^−7 M) is given as “did not induce any observable morphological changes”. For the same substance, the “number of rounded cells relative to vehicle” value in assay [1] (pH 8.0, p<0.001) is “significantly decreased the number of rounded cells”; in assay [1] (pH 8.4, p<0.001), “significantly decreased the number of rounded cells”. Also, the “decrease in absorbance of the substrate (proportional to superoxide radical activity)” value stood at 40% with superoxide radical (pH 8.0, p<0.05) and 60% in the assay on superoxide radical (pH 8.4, p<0.01).
